{"source": "patent US10676430B2", "about": "“Non-alpha substituted peroxy acids and uses thereof” (Stepan Company, priority 2016, dated 2020)", "key": {"[1]": {"test_system": "Spores of Clostridium difficile (ATCC 43598)", "experiment": "Quantitative Disk Carrier Test Method (QCT-2), EPA MB-31-03, sporicidal efficacy", "assay_type": "cell-based", "conditions": "water hardness 400 ppm", "method": "Different formulations containing 3-HPPA at different concentrations were prepared and evaluated for sporicidal efficacy against Cd. The 3-HPPA formulations were also compared to the sporicidal efficacy of different formulations containing peracetic acid (PAA). The test procedure for evaluating sporicidal efficacy was in accordance with the EPA test method in place in 2015: Quantitative Disk Carrier Test Method (QCT-2) Modified for Testing Antimicrobial Products Against Spores of Clostridium difficile (ATCC 43598) on Inanimate, Hard, Non-porous Surfaces (MB-31-03). This method mandates the presence of a high level of organic soil."}, "[2]": {"test_system": "Pseudomonas aeruginosa (Pa, ATCC 15442)", "experiment": "Method A: AOAC Use Dilution test for Disinfectants (Method 964.02)", "assay_type": "cell-based", "conditions": "1 minute", "method": "(§1) In this Example, 3-HPPA was evaluated for biocidal efficacy against Sa, Pa, and Ec using three different test methods. PAA was also evaluated for biocidal efficacy for comparison. The test methods were performed using 400 ppm of hard water as diluent, in the presence of 5% organic matter.\n(§2) Method A: AOAC Use Dilution test for Disinfectants (Official Methods of Analysis. Methods 955.15—Staphylococcus aureus. Method 964.02—Pseudomonas aeruginosa. Posted September 2013). Killing efficacy is a qualitative result, reported as number of tubes showing microbial growth and total number carriers tested."}, "[3]": {"test_system": "Staphylococcus aureus (Sa, ATCC 6538)", "experiment": "Method A: AOAC Use Dilution test for Disinfectants (Method 955.15)", "assay_type": "cell-based", "conditions": "1 minute", "method": "as §1, §2"}, "[4]": {"experiment": "Peracid stability by standard titration method", "assay_type": "physicochemical", "source_text": "[…] The H2O2 used is commercially available from Arkema under the tradename Perxoal 50EG and includes a small amount of stabilizer. The reaction proceeded until equilibrium was reached, in accordance with the reaction scheme recited above. The starting carboxylic acids were acetic acid, 3-hydroxy propanoic acid, 3-chloro-propanoic acid, 2-hydroxy-acetic acid (glycolic acid), 2-hydroxy-propanoic acid (lactic acid) and 2-oxo-propanoic acid. The 3-hydroxy propanoic acid and 3-chloro-propanoic acid generated non alpha-substituted peracids that are examples of the present technology. The other starting carboxylic acids generated peracids that are not within Formula 1 or Formula 2 and are comparative peracid examples.\nEach of the resulting peracids were evaluated for odor. In addition, the resulting peracids were evaluated for stability using a standard titration method known to those skilled in the art."}, "[5]": {"test_system": "Staphylococcus aureus (Sa, ATCC 6538)", "experiment": "Method A+: modified quantitative AOAC Use Dilution test", "assay_type": "cell-based", "conditions": "750 ppm, 1 minute, 400 ppm hard water, 5% organic matter", "method": "as §1\n(§3) Method A^+: modified quantitative AOAC Use Dilution test for Disinfectants (Official Methods of Analysis. Methods 955.15—Staphylococcus aureus. Method 964.02—Pseudomonas aeruginosa. Posted September 2013). The number of surviving organisms on each carrier was quantitatively determined after the indicated contact time. No growth observed on the solid recovery medium means no survivors present on the carriers after exposure to the antimicrobial composition. A kill rate of 99.9999% is equivalent to a 6 log kill."}, "[6]": {"test_system": "Pseudomonas aeruginosa (Pa, ATCC 15442)", "experiment": "Method A+: modified quantitative AOAC Use Dilution test", "assay_type": "cell-based", "conditions": "750 ppm, 1 minute, 400 ppm hard water, 5% organic matter", "method": "as §1, §3"}, "[7]": {"conditions": "750 ppm, 400 ppm hard water, 5% organic matter"}, "[8]": {"conditions": "reaction mixture 20.00% organic acid, 7.50% H2O2, 1.00% H2SO4, DI water"}}, "data": [{"smiles": "CC(=O)OO", "note": "[PAA, peracetic acid]", "values": [{"measurement": "Log10 reduction", "setting": "[1]; peracid active 1844 ppm, contact time 2 minute", "result": 4.76}, {"measurement": "Log10 reduction", "setting": "[1]; peracid active 2500 ppm, contact time 4 minute", "result": 4.37}, {"measurement": "Log10 reduction", "setting": "[1]; peracid active 2500 ppm, contact time 4 minute, listed as PAA alone", "result": "<4.37"}, {"measurement": "Log10 reduction", "setting": "[1]; peracid active 5000 ppm, contact time 4 minute", "result": 6.39}, {"measurement": "Efficacy outcome, EPA UDT/MB-05-13 test method", "setting": "[2]; 750 ppm active", "result": "efficacious"}, {"measurement": "Efficacy (Method A): tubes showing microbial growth / total carriers tested", "setting": "[2]; [7]", "result": "0/20"}, {"measurement": "Efficacy outcome, EPA UDT/MB-05-13 test method", "setting": "[3]; 750 ppm active", "result": "efficacious"}, {"measurement": "Efficacy (Method A): tubes showing microbial growth / total carriers tested", "setting": "[3]; [7]", "result": "0/20"}, {"measurement": "Peracid at day 13", "setting": "[4]; 0% H2SO4 (no acid catalyst), 17.00-20.00% organic acid, 7.8-8.5% H2O2", "result": 1.44, "unit": "%"}, {"measurement": "Peracid loss/day", "setting": "[4]; 1.00% H2SO4, between day 6 and day 13", "result": 0.131, "unit": "%"}, {"measurement": "Peracid at day 6", "setting": "[4]; [8]", "result": 2.290, "unit": "%"}, {"measurement": "Peracid at day 13", "setting": "[4]; [8]", "result": 2.270, "unit": "%"}, {"measurement": "Efficacy (Method A+), kill rate", "setting": "[5]", "result": ">99.9999", "unit": "%"}, {"measurement": "Efficacy (Method A+), kill rate", "setting": "[6]", "result": ">99.9999", "unit": "%"}]}]}
